Test results as given in patent US20250304620A1, “ANTIMICROBIAL PEPTIDE AND APPLICATION THEREOF” (priority 2023, published 2025).
≈ marks a conversion by molar mass, not a printed value. Marks after values point to notes of the source that are not given here. Non-standard residues stand in square brackets, D forms with d. Residues, ends and D or L forms follow the SMILES beside them. d2Nal = N[C@H](Cc1ccc2ccccc2c1)C(=O)O

How the values were obtained:
[1] = test system: vancomycin-resistant Enterococcus (VRE); type: cell-based
Excerpt: (§1) According to the Standards of Clinical and Laboratory Standards Institute (CLSI) of the USA for antimicrobial drug susceptibility test operation standards, the micronutrient serial twofold dilution method was used further determine MICs of the antimicrobial peptides LV-1 to LV-30 against 5 clinically common drug-resistant bacterial strains. The experiment was repeated 5 times in parallel. […] The tested drug-resistant strains included Methicillin-resistant Staphylococcus aureus (MRSA), carbapenem-resistant Escherichia coli (CREC), vancomycin-resistant Enterococcus (VRE), carbapenem-resistant Pseudomonas aeruginosa (CRPA), and carbapenem-resistant Klebsiella pneumoniae (CRKP).

[2] = test system: Methicillin-resistant Staphylococcus aureus (MRSA); type: cell-based; conditions: Methicillin-resistant
Excerpt: as §1

[3] = test system: carbapenem-resistant Klebsiella pneumoniae (CRKP); type: cell-based; conditions: carbapenem-resistant (CRKP)
Excerpt: as §1

[4] = test system: carbapenem-resistant Escherichia coli (CREC); type: cell-based; conditions: carbapenem-resistant (CREC)
Excerpt: as §1

[5] = test system: carbapenem-resistant Pseudomonas aeruginosa (CRPA); type: cell-based; conditions: carbapenem-resistant (CRPA)
Excerpt: as §1

[6] = test system: Pseudomonas aeruginosa ATCC 27853; assay: Injectable formulations on mice infected with peritonitis; type: in vivo, ICR mice; conditions: twice a day for 3 days; for Number of mice that died on each day after infection: day 1 / Number of mice that died on each day after infection: day 2 / Number of mice that died on each day after infection: day 3 / Number of mice that died on each day after infection: day 4 / Number of mice that died on each day after infection: day 5 / Average survival times (Days): n = 10; for Average survival times (Days): observed for 14 d; for survival time of mice infected with Pseudomonas aeruginosa: tail vein, observed 14 d
Procedure: Both female and male ICR mice were used in the test, half of the female and male mice were taken and randomly assigned into groups, with 10 mice in each group, and kept in separate cages. The mice were divided into a blank control group, a negative control group, a positive control Levofloxacin group, and AMPs LV-1 to LV-30 groups. A bacterial suspension of Pseudomonas aeruginosa ATCC 27853 was prepared, a concentration of the suspension was adjusted 1×10^9 CFU/mL for subsequent use. Except for the blank control group, all other mice were injected with the bacterial suspension (0.2 mL, 1×10^9 CFU/mL), into abdominal cavity of the mice, to establish a model. After the model was successfully established, the mice were given drug immediately according to their body weights. Except for the blank control group and the negative control group, the mice in all other groups were administered the corresponding injectable formulations via tail vein, twice a day for 3 consecutive days. The mice were then observed for 14 d. The death of mice in each group was observed, and survival time of the mice was recorded. Results of the effect of the injectable formulations of AMPs LV-1 to LV-30 on the survival time of mice infected with Pseudomonas aeruginosa are shown in Table 10.

[7] = test system: Staphylococcus aureus (NRS 384); assay: microbe, parasite or virus in culture; type: cell-based; conditions: NRS 384
Procedure, shortened: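 CLSI broth microdilution with serial twofold dilutions gave MICs against S. aureus NRS 384, with 5 parallel replicates. Levofloxacin and the AMP Cbf-K16 served as positive controls.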

SMILES	MIC VRE [1]	MIC MRSA [2]	MIC CRKP [3]	MIC CREC [4]	MIC CRPA [5]	Number of mice that died on each day after infection: day 1 ([6]; 0.2 mg/kg via tail vein)	Number of mice that died on each day after infection: day 2 ([6]; 0.2 mg/kg via tail vein)	Number of mice that died on each day after infection: day 3 ([6]; 0.2 mg/kg via tail vein)	Number of mice that died on each day after infection: day 4 ([6]; 0.2 mg/kg via tail vein)	Number of mice that died on each day after infection: day 5 ([6]; 0.2 mg/kg via tail vein)	Average survival times (Days) ([6]; 0.2 mg/kg via tail vein)	Number of mice that died on each day after infection: day 1 ([6]; 1 mg/kg via tail vein)	Number of mice that died on each day after infection: day 2 ([6]; 1 mg/kg via tail vein)	Number of mice that died on each day after infection: day 3 ([6]; 1 mg/kg via tail vein)	Number of mice that died on each day after infection: day 4 ([6]; 1 mg/kg via tail vein)	Number of mice that died on each day after infection: day 5 ([6]; 1 mg/kg via tail vein)	Average survival times (Days) ([6]; 1 mg/kg via tail vein)	Number of mice that died on each day after infection: day 1 ([6]; 5 mg/kg via tail vein)	Number of mice that died on each day after infection: day 2 ([6]; 5 mg/kg via tail vein)	MIC against Staphylococcus aureus (NRS 384) [7]	also measured
CC(=O)N[C@H](CCCNC(=N)N)C(=O)N[C@H](CCCNC(=N)N)C(=O)N[C@H](CC(C)C)C(=O)N[C@H](CC(C)C)C(=O)N[C@H](Cc1ccc2ccccc2c1)C(=O)N[C@H](CCCNC(=N)N)C(=O)N[C@H](CC(C)C)C(=O)N[C@H](CCCNC(=N)N)C(=O)N[C@H](Cc1ccc2ccccc2c1)C(=O)N[C@H](CCCNC(=N)N)C(=O)N[C@H](CCCNC(=N)N)C(N)=O [LV-1] (Ac-[dR][dR][dL][dL][d2Nal][dR][dL][dR][d2Nal][dR][dR]-NH2)	4 µg/mL (≈ 2.31 µM)	4 µg/mL (≈ 2.31 µM)	2 µg/mL (≈ 1.16 µM)	2 µg/mL (≈ 1.16 µM)	4 µg/mL (≈ 2.31 µM)	1 Mouse	2 Mouse	1 Mouse	1 Mouse	1 Mouse	7.3** Days	0 Mouse	1 Mouse	1 Mouse	1 Mouse	0 Mouse	10.7**** Days	2 Mouse	1 Mouse	1 µg/mL (≈ 0.578 µM)	Number of mice that died on each day after infection: day 3 ([6]; 5 mg/kg via tail vein): 1 Mouse; Number of mice that died on each day after infection: day 4 ([6]; 5 mg/kg via tail vein): 0 Mouse; Number of mice that died on each day after infection: day 5 ([6]; 5 mg/kg via tail vein): 0 Mouse; Average survival times (Days) ([6]; 5 mg/kg via tail vein): 9.1** Days; survival time of mice infected with Pseudomonas aeruginosa [6]: superior to those of the Levofloxacin group
CC(=O)N[C@H](CCCNC(=N)N)C(=O)N[C@H](CCCCN)C(=O)N[C@H](CC(C)C)C(=O)N[C@H](CC(C)C)C(=O)N[C@H](Cc1ccccc1)C(=O)N[C@H](CCCNC(=N)N)C(=O)N[C@H](CC(C)C)C(=O)N[C@H](CCCCN)C(=O)N[C@H](Cc1ccccc1)C(=O)N[C@H](CCCNC(=N)N)C(=O)N[C@H](CCCCN)C(N)=O [LV-2] (Ac-[dR][dK][dL][dL][dF][dR][dL][dK][dF][dR][dK]-NH2)	2 µg/mL (≈ 1.29 µM)	2 µg/mL (≈ 1.29 µM)	2 µg/mL (≈ 1.29 µM)	4 µg/mL (≈ 2.59 µM)	8 µg/mL (≈ 5.17 µM)	3 Mouse	1 Mouse	1 Mouse	0 Mouse	0 Mouse	7.8** Days	0 Mouse	0 Mouse	1 Mouse	0 Mouse	1 Mouse	12.0**** Days	1 Mouse	0 Mouse	1 µg/mL (≈ 0.647 µM)	Number of mice that died on each day after infection: day 3 ([6]; 5 mg/kg via tail vein): 1 Mouse; Number of mice that died on each day after infection: day 4 ([6]; 5 mg/kg via tail vein): 0 Mouse; Number of mice that died on each day after infection: day 5 ([6]; 5 mg/kg via tail vein): 0 Mouse; Average survival times (Days) ([6]; 5 mg/kg via tail vein): 11.6**** Days; survival time of mice infected with Pseudomonas aeruginosa [6]: superior to those of the Levofloxacin group
CC(=O)N[C@H](CCCNC(=N)N)C(=O)N[C@H](CCCCN)C(=O)N[C@H](CC(C)C)C(=O)N[C@H](CC(C)C)C(=O)N[C@H](Cc1ccccc1)C(=O)N[C@H](CCCNC(=N)N)C(=O)N[C@H](CC(C)C)C(=O)N[C@H](CCCCN)C(=O)N[C@H](Cc1ccc2ccccc2c1)C(=O)N[C@H](CCCNC(=N)N)C(=O)N[C@H](CCCCN)C(N)=O [LV-3] (Ac-[dR][dK][dL][dL][dF][dR][dL][dK][d2Nal][dR][dK]-NH2)	8 µg/mL (≈ 5.01 µM)	2 µg/mL (≈ 1.25 µM)	4 µg/mL (≈ 2.51 µM)	4 µg/mL (≈ 2.51 µM)	8 µg/mL (≈ 5.01 µM)	–	–	–	–	–	–	1 Mouse	1 Mouse	0 Mouse	2 Mouse	1 Mouse	8.6** Days	–	–	1 µg/mL (≈ 0.627 µM)	–
